Where a name gives a salt, the structure may show the parent alone.
Columns and labels:
mexB (EC) strain = assay: Efflux ability inhibition effect on drug efflux pump MexB (Test Examples 1 and 3): proliferation (OD595) of mexB (EC) strain with EM or LVFX at 1/4 MIC, EC75; format: cell-based, Escherichia coli; details: for EC75, mexB (EC) strain, EM: combined with EM at 1/4 MIC; for EC75, mexB (EC) strain, LVFX: combined with LVFX at 1/4 MIC
Procedure: The efflux ability inhibition effect of the test compound on the drug efflux pump was evaluated using the bacterial proliferative ability in the presence of EM or LVFX as an index.
EM is a macrolide antibacterial agent and is a drug that is discharged outside the bacteria by MexB and MexY LVFX is a quinolone antibacterial agent and is a drug that is discharged outside the bacteria by MexB and MexY In a case where the test compound has an efflux ability inhibitory ability against the drug efflux pump, the proliferation of bacteria is suppressed by the combined use of EM or LVFX and the test compound, as compared with the case where EM or LVFX is used alone.
A mutant strain (hereinafter, referred to as an “mexB (EC) strain”) obtained by transferring the genes of the main multidrug efflux system MexAB-OprM of Pseudomonas aeruginosa described in Nature, 2013, Vol. 500, pp. 102 to 106 as a plasmid into Escherichia coli strains in which the acrB and tolC genes of the multidrug efflux system AcrAB-TolC were deleted as described in Journal of Infection and Chemotherapy 2008, Vol. 14, pp. 23 to 29, and a gene transfer strain (hereinafter, referred to as an “mexY (EC) strain”) of another main multidrug efflux system MexXY-OprM of Pseudomonas aeruginosa were used for the evaluation of test compounds.
In the mexB (EC) strain, an expression level of MexB of the drug efflux pump is accelerated, and in the mexY (EC) strain, an expression level of MexY of the drug efflux pump is accelerated.
For culturing each Escherichia coli strain, a 96-well plate (amount of culture medium per well: 100 μL) was used and Luria-Bertani broth (LB) culture medium was used. The inoculation amount of the bacteria was set to 10^4 to 5 CFU/well.
The mexB (EC) strain and the mexY (EC) strain were cultured for 16 to 20 hours in a culture medium to which EM or LVFX and test compounds at various concentrations (0 to 800 μM) were added, and the proliferation of the bacterial strains was evaluated by optical turbidity at 595 nm (OD595). The concentration of the antibacterial agents (EM and LVFX) in the culture medium were each set to ¼ of the minimum inhibitory concentration (MIC) (hereinafter, referred to as ¼ MIC) of the single antibacterial agent.
The proliferation of bacteria in a case where the antibacterial agent was added at the concentration of ¼ MIC in a case where the test compound was not added was measured, and compared with the proliferation of bacteria in a case where the test compound was contained, and the lowest concentration of the test compound at which the proliferation was inhibited by 75% or more was defined as the drug efflux pump inhibitory ability of the test compound as 75% inhibitory effect concentration (EC75).
The drug efflux pump inhibitory ability of each test compound in a case of being used in combination with the antibacterial agent against the mexB (EC) strain and the mexY (EC) strain was evaluated as follows according to the value of EC75. • S: EC75≤[…] • A: 12.5 μM<EC75≤25 μM • B: 25 μM<EC75≤100 μM • C: […]
In the same manner as in Test Example 1, the efflux ability inhibition effect of the test compound on the drug efflux pump was evaluated using the bacterial proliferation ability in the presence of EM or LVFX as an index.

mexB (PA) strain = assay: Combinational effect with antibacterial agent against Pseudomonas aeruginosa (Test Examples 2 and 4): mexB (PA) strain with LVFX, TC or AZT at 1/4 MIC, EC99; format: cell-based; details: mexB (PA) strain, Test Example 4; for EC99, combinational effect with AZT, mexB (PA): combined with AZT at 1/4 MIC; for EC99, combinational effect with LVFX, mexB (PA): combined with LVFX at 1/4 MIC; for EC99, combinational effect with TC, mexB (PA): combined with TC at 1/4 MIC
How it was run: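 P. aeruginosa mexB (PA) strain, lacking MexCD-OprJ, MexEF-OprN and MexXY and overexpressing MexAB-OprM, grown 16–20 h in CAMHB (10^4–5 CFU/well) with LVFX, TC or AZT at ¼ MIC plus test compound at 0–800 μM. Growth read as OD595; EC99 is the lowest compound concentration giving ≥99% growth inhibition.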

S-3769 strain = assay: Combinational effect with antibacterial agent against Pseudomonas aeruginosa (Test Examples 2 and 4): S-3769 strain with AMK or GM at 1/4 MIC, EC99; format: cell-based; details: S-3769 strain, Test Example 4; for EC99, combinational effect with AMK, S-3769 strain: combined with AMK at 1/4 MIC; for EC99, combinational effect with GM, S-3769 strain: combined with GM at 1/4 MIC
How it was run: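 P. aeruginosa S-3769 (clinical isolate, MexY overexpressed) grown 16–20 h in CAMHB, 10^4 to 5 CFU/well, with AMK or GM at ¼ MIC plus test compound 0–800 μM. Growth read as OD595; EC99 is the lowest compound concentration giving ≥99% growth inhibition.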

[1] = Table 51, Test Example 1, 16 to 20 hours culture, OD595
[2] = Table 53, Test Example 3, same manner as Test Example 1

| SMILES | EC75, mexB (EC) strain, EM (mexB (EC) strain; [1]) | EC75, mexB (EC) strain, LVFX (mexB (EC) strain; [1]) | EC99, combinational effect with AZT, mexB (PA) (mexB (PA) strain) | EC99, combinational effect with LVFX, mexB (PA) (mexB (PA) strain) | EC99, combinational effect with TC, mexB (PA) (mexB (PA) strain) | EC99, combinational effect with AMK, S-3769 strain (S-3769 strain) | EC99, combinational effect with GM, S-3769 strain (S-3769 strain) | other results |
| --- | --- | --- | --- | --- | --- | --- | --- | --- |
| O=C(CN1CCN(CCc2ccccc2)CC1)N1CCN(Cc2ccccc2F)CC1 [Example 259, hydrochloride of 1-(4-(2-fluorobenzyl)piperazin-1-yl)-2-(4-phenethylpiperazin-1-yl)ethan-1-one] | A (12.5 μM<EC75≤25 μM) |  |  |  |  |  |  |  |
| O=C(CN1CCN(CCc2ccccc2)CC1)N1CCN(Cc2ccccc2CO)CC1 [Example 262, Hydrochloride of 1-(4-(2-(hydroxymethyl)benzyl)piperazin-1-yl)-2-(4-phenethylpiperazin-1-yl)etban-1-one] | A (12.5 μM<EC75≤25 μM) | B (25 μM<EC75≤100 μM) |  |  |  |  |  |  |
| COCc1ccccc1CN1CCN(C(=O)CN2CCN(CCc3ccccc3)CC2)CC1 [Example 263, Hydrochloride of 1-(4-(2-(methoxymethyl)benzyl)piperazin-1-yl)-2-(4-phenethylpiperazin-1-yl)ethan-1-one] | A (12.5 μM<EC75≤25 μM) | A (12.5 μM<EC75≤25 μM) |  |  |  |  |  |  |
| COc1cccc(OCCN)c1CN1CCN(C(=O)CN2CCN(CCc3ccccc3)CC2)CC1 [Example 266, hydrochloride of 1-(4-(2-(2-aminoethoxy)-6-methoxybenzyl)piperazin-1-yl)-2-(4-phenethylpiperazin-1-yl)ethan-1-one] |  | B (25 μM<EC75≤100 μM) |  |  |  |  |  |  |
| COc1cccc(F)c1C(C)N1CCN(C(=O)CN2CCN(CCc3ccccc3)CC2)CC1.Cl (centres unmarked) [Example 269, hydrochloride of 1-(4-(1-(2-fluoro-6-methoxyphenyl)ethyl)piperazin-1-yl)-2-(4-phenethylpiperazin-1-yl)ethan-1-one] | A (12.5 μM<EC75≤25 μM) | A (12.5 μM<EC75≤25 μM) |  |  |  |  |  |  |
| COc1ccccc1CN1CCN(C(=O)CN2CCN(CCc3ccccn3)CC2)CC1 [Example 288, 1-(4-(2-Methoxybenzyl)piperazin-1-yl)-2-(4-(2-(pyridin-2-yl)ethyl)piperazin-1-yl)ethan-1-one and hydrochloride thereof] | B (25 μM<EC75≤100 μM) | B (25 μM<EC75≤100 μM) |  |  |  |  |  |  |
| COc1ccccc1CN1CCN(C(=O)CN2CCN(CCc3cncs3)CC2)CC1 [Example 294, 1-(4-(2-Methoxybenzyl)piperazin-1-yl)-2-(4-(2-(thiazol-5-yl)ethyl)piperazin-1-yl)ethan-1-one and hydrochloride thereof] |  | A (12.5 μM<EC75≤25 μM) |  |  |  |  |  |  |
| COc1ccccc1CN1CCN(C(=O)CC2CCN(CCc3ccccc3)CC2)CC1 [Example 304, hydrochloride of 1-(4-(2-methoxybenzyl)piperazin-1-yl)-2-(1-phenethylpiperidin-4-yl)ethan-1-one] | A (12.5 μM<EC75≤25 μM) | B (25 μM<EC75≤100 μM) |  |  |  |  |  |  |
| COc1ccccc1CN1CCN(C(=O)CN2CCC(CCc3ccccc3)(NC(C)=O)CC2)CC1 [Example 415, hydrochloride of N-(1-(2-(4-(2-methoxybenzyl)piperazin-1-yl)-2-oxoethyl)-4-phenethylpiperidin-4-yl)acetamide] |  | A (12.5 μM<EC75≤25 μM) |  |  |  |  |  |  |
| CCOc1cccc(F)c1CN1CCN(C(=O)[C@H](N)C2CCN(CCc3cc(Cl)ccc3-c3cn(C)nc3C)CC2)CC1 [Example 500, Hydrobromide of (R)-2-amino-2-(1-(5-chloro-2-(1,3-dimethyl-1H-pyrazol-4-yl)phenethyl)piperidin-4-yl)-1-(4-(2-ethoxy-6-fluorobenzyl)piperazin-1-yl)ethan-1-one] |  |  | C (100 μM<EC99) | C (100 μM<EC99) | C (100 μM<EC99) | A (12.5 μM<EC99≤25 μM) | A (12.5 μM<EC99≤25 μM) | EC75, mexB (EC) strain, EM (mexB (EC) strain; [2]): A (12.5 μM<EC75≤25 μM) |
| CCOc1cccnc1CN1CCN(C(=O)[C@H](N)C2CCN(CCc3cc(Cl)ccc3-c3ccccc3)CC2)CC1 [Example 508, Hydrobromide of (R)-2-amino-2-(1-(2-(4-chloro-[1,1-biphenyl]-2-yl)ethyl)piperidin-4-yl)-1-(4-((3-ethoxypyridin-2-yl)methyl)piperazin-1-yl)ethan-1-one] |  |  | B (25 μM<EC99≤100 μM) | C (100 μM<EC99) | B (25 μM<EC99≤100 μM) | S (EC99≤12.5 μM) | A (12.5 μM<EC99≤25 μM) | EC75, mexB (EC) strain, EM (mexB (EC) strain; [2]): A (12.5 μM<EC75≤25 μM) |
| N[C@@H](C(=O)N1CCN(Cc2ncc3ccccn23)CC1)C1CCN(CCc2cc(Cl)ccc2-c2ccccc2)CC1 [Example 518, Hydrobromide of (R)-2-amino-2-(1-(2-(4-chloro-[1,1-biphenyl]-2-yl)ethyl)piperidin-4-yl)-1-(4-(imidazo[1,5-a]pyridin-3-ylmethyl)piperazin-1-yl)ethan-1-one] |  |  | C (100 μM<EC99) | C (100 μM<EC99) | C (100 μM<EC99) | B (25 μM<EC99≤100 μM) | B (25 μM<EC99≤100 μM) | EC75, mexB (EC) strain, LVFX (mexB (EC) strain; [2]): A (12.5 μM<EC75≤25 μM) |
| Cn1ccnc1CN1CCN(C(=O)[C@H](N)C2CCN(CCc3cc(Cl)ccc3-c3ccccc3)CC2)CC1 [Example 525, Hydrobromide of (R)-2-amino-2-(1-(2-(4-chloro-[1,1-biphenyl]-2-yl)ethyl)piperidin-4-yl)-1-(4-((1-methyl-1H-imidazol-2-yl)methyl)piperazin-1-yl)ethan-1-one] |  |  | C (100 μM<EC99) | C (100 μM<EC99) | C (100 μM<EC99) | C (100 μM<EC99) | C (100 μM<EC99) | EC75, mexB (EC) strain, LVFX (mexB (EC) strain; [2]): B (25 μM<EC75≤100 μM) |
| C=C(Br)c1ccc(Cl)cc1CCN1CCC([C@@H](N)C(=O)N2CCN(Cc3c(F)cccc3OCC)CC2)CC1 [Example 545, Hydrobromide of (R)-2-amino-2-(1-(2-(1-bromovinyl)-5-chlorophenethyl)piperidin-4-yl)-1-(4-(2-ethoxy-6-fluorobenzyl)piperazin-1-yl)ethan-1-one] |  |  | B (25 μM<EC99≤100 μM) | B (25 μM<EC99≤100 μM) | B (25 μM<EC99≤100 μM) | S (EC99≤12.5 μM) | S (EC99≤12.5 μM) | EC75, mexB (EC) strain, LVFX (mexB (EC) strain; [2]): A (12.5 μM<EC75≤25 μM) |

Reference: patent US20250326744A1, “PIPERAZINE DERIVATIVE OR SALT THEREOF, AND PHARMACEUTICAL COMPOSITION” (priority 2022, published 2025)
